In patent US20240358705A1, “COMPOSITIONS AND METHODS FOR TREATMENT OF CANCER” (Board of Supervisors of Louisiana State University and …, priority 2021, published 2024):

Columns and labels:
CD3 T cells [1] = details: activated CD3 T cells, 3 μM or 10 μM, 72 hours
Experimental: (§1) Lymph nodes and spleen were isolated from wild-type C57BL/6N mice. Tissue was mechanically dissociated with the back of a syringe plunger and passed through a 70 M filter. […] Treated cells were incubated at 37° C., 5% CO2 for the designed study duration.
Protein concentration was quantified using a BCA protein assay kit (Thermo #A53225). […] of protein diluted with 1×LDS sample buffer (Life Technologies #B0008) and 1×sample reducing agent (Life Technologies #B0009), were denatured at 95° C. for 5 minutes. Denatured T cell protein was resolved using a 10% Bolt Bis-Tris plus protein gel (Thermo #NW00102BOX) and denatured BM-MDSC protein was resolved using an 8% Bolt Bis-Tris plus protein gel (Thermo #NW00082BOX). Gels were transferred to a PVDF membrane (Invitrogen #IB401002) using a seven-minute P3 program on an Invitrogen iBlot dry transfer system. Membranes were then blocked for one hour using 5% nonfat dry milk in TBS-T, washed three times with TBS-T and probed with primary antibody diluted with 5% BSA in TBS-T overnight at 4° C. with gentle rocking. Primary antibody was removed, and membranes were washed three times with TBS-T followed by secondary antibody diluted in TBS-T at room temperature for one hour with gentle rocking. […] Secondary antibodies used were anti-mouse-HRP (Kindle Biosciences #R1005) and anti-rabbit-HRP (Kindle Biosciences #R1006). […]

CD3 T cells [2] = assay: Cytokine/chemokine quantification (Milliplex); assay type: cell-based, mouse; details: 72 hours
Experimental: Lymph nodes and spleen were isolated from wild-type C57BL/6N mice. Tissue was mechanically dissociated with the back of a syringe plunger and passed through a […] filter. […] Treated cells were incubated at 37° C., 5% CO2 for the designed study duration. […] Culture supernatant was harvested and clarified by centrifugation at 2000 RPMI for five minutes. […] Cytokines and chemokines were quantified using a Milliplex mouse cytokine/chemokine magnetic bead panel (Millipore […]32) on a Luminex MAGPIX system with undiluted samples following the manufacturer's instructions.

CD8 T cells = assay: CFSE labeling and T cell proliferation; assay type: cell-based, mouse; details: 72 hours
Experimental: Lymph nodes and spleen were isolated from wild-type C57BL/6N mice. Tissue was mechanically dissociated with the back of a syringe plunger and passed through a […] filter. […] Treated cells were incubated at 37° C., 5% CO2 for the designed study duration. Isolated CD3 T cells were labeled with 1 μM CFDA SE (Thermo #V12883) for 15 minutes at 37° C. protected from light. […] Cells were pelleted, resuspended and plated in an antibody coated well with the indicated drug concentrations at time zero. Activated T cells were incubated at 37° C., 5% CO2 for 72 hours. After study duration, T cells were stained with anti-CD4, anti-CD8, anti-CD3 following the immune profiling by flow cytometry method and proliferation was measured by CFSE dilution.

OT-I CD8 T cells = assay: In vitro cytotoxicity assay (E.G7-OVA target cells); assay type: cell-based, mouse; details: CD8 T cells treated 72 hours (10 μM printed for GLPG1205)
Experimental: Lymph nodes and spleen were isolated from wild-type C57BL/6N mice. Tissue was mechanically dissociated with the back of a syringe plunger and passed through a […]. […] Treated cells were incubated at 37° C., 5% CO2 for the designed study duration. Treated OT-I CD8 T cells were prepared following the in vitro T cell activation method. Non-target EL4 cells (CFSE low—0.2 μM) and target E.G7-OVA cells (CFSE high—[…]) were prepared following the CFSE labeling protocol. Cells were subsequently washed, pelleted, resuspended at 1×10^6 cells/ml, and mixed at 1:1 ratio. 100 μl of the mixed cells were plated into a 96-well flat bottom plate.

CD4 T cells = assay: CD4 T cell differentiation by flow cytometry; assay type: cell-based, mouse; details: 72 hours; for naïve CD4 T cell compartment, reduction vs DMSO: trend not found to be significant
Experimental: as §1, with “duration. […] After staining, cells were pelleted, resuspended and run by a BD FACSymphony A3 flow cytometer.” for “duration.”

BM-MDSCs [3] = assay: MDSC suppression assay; assay type: cell-based, mouse; details: for percent proliferation of CD3 T cells co-cultured with treated BM-MDSCs: DMSO control 40.73%
Experimental: 24-well plates were coated with […] anti-mouse CD3e and anti-mouse CD28 resuspended in PBS for two hours at 37° C., 5% C02. PBS containing coating antibodies were then removed and 1×10^6 naïve CFSE CD3 T cells in 1 ml was added to each well. Treated BM-MDSCs were removed using a rubber policeman. […] Cells were harvested and stained following the immune profiling by flow cytometry method. MDSC suppressive capacity was measured by their ability to inhibit CD3 T cell proliferation measured by CFSE dilution.

BM-MDSCs [4] = assay: Arginase-I and iNOS immunoblot in BM-MDSCs; assay type: cell-based, mouse; details: for arginase-I levels, reduction compared to DMSO / iNOS production, reduction compared to DMSO: 72 hours
Experimental: Bone marrow cells were isolated by flushing the tibia and femurs of wild-type C57BL/6N mice. […] To generate BM-MDSCs, 3×10^6 cells were plated in a 6-well dish and incubated at 37° C., 5% CO2 for 96 hours. For treatment, drugs were administered at either 3 μM or 10 μM concentrations and added to the BM-MDSC cell culture well 24 hours after plating.
Protein concentration was quantified using a BCA protein assay kit (Thermo #A53225). […] of protein diluted with 1×LDS sample buffer (Life Technologies #B0008) and 1×sample reducing agent (Life Technologies #B0009), were denatured at 95° C. for 5 minutes. Denatured T cell protein was resolved using a 10% Bolt Bis-Tris plus protein gel (Thermo #NW00102BOX) and denatured BM-MDSC protein was resolved using an 8% Bolt Bis-Tris plus protein gel (Thermo #NW00082BOX). Gels were transferred to a PVDF membrane (Invitrogen #IB401002) using a seven-minute P3 program on an Invitrogen iBlot dry transfer system. Membranes were then blocked for one hour using 5% nonfat dry milk in TBS-T, washed three times with TBS-T and probed with primary antibody diluted with 5% BSA in TBS-T overnight at 4° C. with gentle rocking. Primary antibody was removed, and membranes were washed three times with TBS-T followed by secondary antibody diluted in TBS-T at room temperature for one hour with gentle rocking. […] Secondary antibodies used were anti-mouse-HRP (Kindle Biosciences #R1005) and anti-rabbit-HRP (Kindle Biosciences #R1006). Analysis was conducted using ImageJ (NIH Bethesda, MD) and normalized to the housekeeping protein β-actin.

## O=c1nc(OC[C@@H]2COCCO2)cc2n1CCc1cc(C#CC3CC3)ccc1-2 [GLPG1205, 9-Cyclopropylethynyl-2-((S)-1-[1,4]dioxan-2-ylmethoxy)-6,7-dihydropyrimido[6,1-a]isoquinolin-4-one]
CD3 T cells [1]
  GPR84 expression: did not significantly affect GPR84 expression
CD3 T cells [2]; 3 μM
  Eotaxin (CCL11) levels, increase vs DMSO: 19.87%
  G-CSF, increase vs DMSO: 16.64%
  GM-CSF, increase vs DMSO: 32.93%
  IL-1P, increase vs DMSO: 20.06%
  IL-2 production, increase vs DMSO: 51.36%
  IL-3 secretion, increase vs DMSO: 31.91%
  IL-4 secretion, increase vs DMSO: 26.55%
  IL-6, increase vs DMSO: 30.71%
  IL-9, increase vs DMSO: did not elicit any significant changes
  IL-10, increase vs DMSO: 52.24%
  IL-12(p40) levels, increase vs DMSO: 16.99%
  IL-15 secretion, increase vs DMSO: 16.91%
  IP-10 (CXCL10) secretion, increase vs DMSO: 28.52%
  KC (CXCL1) concentrations, increase vs DMSO: 19.27%
  LIF, increase vs DMSO: 41.71%
  TNFα, increase vs DMSO: 39.64%
  VEGF, increase vs DMSO: 51.99%
CD3 T cells [2]; 10 μM
  Eotaxin (CCL11) levels, increase vs DMSO: 16.57%
  G-CSF, increase vs DMSO: 26.52%
  IL-2 production, increase vs DMSO: 31.1%
  IL-3 secretion, increase vs DMSO: 38.29%
  IL-4 secretion, increase vs DMSO: did not elicit an effect
  IL-6, increase vs DMSO: 28.38%
  IL-9, increase vs DMSO: 19.94%
  IL-10, increase vs DMSO: 58.46%
  IL-12(p40) levels, increase vs DMSO: 21.77%
  IL-15 secretion, increase vs DMSO: 15.05%
  IP-10 (CXCL10) secretion, increase vs DMSO: 73.65%
  KC (CXCL1) concentrations, increase vs DMSO: 25.62%
  LIF, increase vs DMSO: 52.21%
  LIX (CXCL5), increase vs DMSO: 20.94%
  MCP-1 (CCL2), increase compared to DMSO control: 21.29%
  RANTES (CCL5), increase vs DMSO: 29.8%
  TNFα, increase vs DMSO: 50.91%
  VEGF, increase vs DMSO: 71.18%
CD8 T cells; 3 μM
  CD8 T cell proliferation, Log2 fold change compared DMSO control: 0.48 Log2 fold change
  CD8 T cell proliferation, increase vs DMSO: 39.3%
CD8 T cells; 10 μM
  CD8 T cell proliferation, Log2 fold change compared DMSO control: 0.78 Log2 fold change
  CD8 T cell proliferation, increase vs DMSO: 71.7%
OT-I CD8 T cells
  killing capacity compared to DMSO control (percent specific lysis): significantly improved killing capacity
CD4 T cells; 3 μM
  effector/memory CD4 T cells, increase compared to DMSO control: 31.55%
  naïve CD4 T cell compartment, reduction vs DMSO: 41.57%
CD4 T cells; 10 μM
  effector/memory CD4 T cells, increase compared to DMSO control: 39.79%
  naïve CD4 T cell compartment, reduction vs DMSO: 45.61%
BM-MDSCs [3]; BM-MDSCs treated with 3 μM
  percent proliferation of CD3 T cells co-cultured with treated BM-MDSCs: 64.99%
BM-MDSCs [3]; BM-MDSCs treated with 10 μM
  percent proliferation of CD3 T cells co-cultured with treated BM-MDSCs: 62.49%
BM-MDSCs [3]; FIG. 6 Panel A
  T cell proliferation in mixed culture of MDSC and T cells: allows T cells to proliferate (multiply) better
BM-MDSCs [4]; 3 μM
  arginase-I levels, reduction compared to DMSO: 1.79 times
  iNOS production, reduction compared to DMSO: 1.5 times
BM-MDSCs [4]; 10 μM
  arginase-I levels, reduction compared to DMSO: 2.75 times
  iNOS production, reduction compared to DMSO: 1.35 times
BM-MDSCs [4]; bone marrow derived murine MDSC, descending concentrations (FIG. 4)
  expression of Arginase 1 and iNOS (Western blot): decreases the expression of Arginase 1 protein
